From patent publication US8246966B2, “Trypanosome microsome system and uses thereof” (priority 2006, dated 2012)

Tests used:
[1] = test system: T. brucei microsomes (TbRM); test: Post-translational import of VSG-11786 into TbRM with inhibitors (Example 4); type: biochemical, Trypanosoma brucei; conditions: 10 μM
Method: FIGS. 7A to 7C. […] VSG-11786 mRNA was translated in rabbit reticulocyte lysate in the absence or presence of T. brucei cytosol for 1 hour at 37° C., and then cycloheximide was added to stop protein synthesis. TbRM (1 equivalent) and MAL3-101 (10 μM), MAL3-51 (10 μM), or an equal volume of DMSO was added to the samples on ice, and the mixture was incubated at 37° C. for 1.5 hours for translocation of VSG-11786 into the microsomes. Reaction mixtures were treated with proteinase K (PK) for one hour on ice. Proteolysis was terminated with PMSF. Proteins were precipitated with ammonium sulfate, pelleted by centrifugation, resuspended in SDS-PAGE sample buffer, and resolved by Tris-Tricine SDS-PAGE. Gel images were obtained with a phosphorimager and analyzed with Quantity-One software. Reaction mixtures for odd numbered lanes contained TbRM, but not proteinase K; even numbered lanes contained TbRM and proteinase K. Brackets denote lanes that were compared to obtain percentage of VSG-11786 import values. FIG. 7B is a graphical representation of data from FIG. 7A. […] In FIG. 7C, the effect of MAL3-101 on T. brucei growth.
FIGS. 8A to 8D. Effects of NFI028 and CAM741 on import of VSG-11786 into T. brucei microsomes. […] VSG-11786 mRNA was translated in rabbit reticulocyte lysate in the presence of T. brucei cytosol for one hour at 37° C., and then protein synthesis was stopped by the addition of cycloheximide. […] Reaction mixtures were treated with proteinase K (PK) on ice for one hour. Proteolysis was terminated with PMSF. Proteins were precipitated with ammonium sulfate, pelleted, resuspended in SDS-PAGE sample buffer, and resolved by Tris-Tricine SDS-PAGE. Images of radiolabeled proteins were obtained with a phosphorimager and quantitated with Quantity-One software. Samples depicted in odd numbered lanes contained TbRM, but were not treated proteinase K. Reaction mixtures shown in even numbered lanes contained TbRM and were treated with proteinase K. Brackets denote lanes that were compared to each other in order to obtain percentage of VSG-11786 import values. FIG. 8B is a graphical representation of data from FIG. 8A.
FIGS. 9A to 9D. Effects of azide, AEE788, and valinomycin on VSG-11786 import into T. brucei microsomes. […] VSG-11786 mRNA was translated in rabbit reticulocyte lysate in the presence of T. brucei cytosol for one hour at 37° C. Cycloheximide was added to stop proteins synthesis. TbRM (1 equivalent) and sodium azide (8 μM), AEE788 (8 μM), an equal volume of microsome buffer (RMB) or DMSO was added to the samples on ice, and the mixtures were incubated at 37 C for 1.5 hours. Reaction mixtures were treated with proteinase K (PK) on ice for one hour. Proteolysis was terminated with PMSF. Proteins were precipitated with ammonium sulfate, pelleted, resuspended in SDS-PAGE sample buffer, and resolved by Tris-Tricine SDS-PAGE. Images of radiolabeled proteins were obtained with a phosphorimager and quantitated with Quantity-One software. Brackets show lanes that were compared to each other in order to obtain percentage of VSG-11786 imported into TbRM. Lanes 1, 3, 5, & 7 were treated with TbRM, but not proteinase K. Lanes 2, 4, 6, & 8 were treated with TbRM and proteinase K. FIG. 9B is a graphical representation of data from FIG. 9A. […] Reaction mixtures depicted in odd lanes contained TbRM, but were not treated with proteinase K; even lanes contained TbRM and were treated with proteinase K. FIG. 9D is a graphical representation of data from panel FIG. 9C.

[2] = test system: Bloodstream T. brucei CA427; test: Bloodstream T. brucei cell culture drug susceptibility (Example 4); type: cell-based, Trypanosoma brucei; conditions: cultured bloodstream T. brucei
Method: Cell Culture. Bloodstream T. brucei cell culture and drug susceptibility studies were performed as previously described. Bloodstream T. brucei CA427 were cultured in HMI-9 media (Hirumi and Hirumi, 1994, Parasitol Today; 10(2):80-4) to a density of 10^6 cells/ml. Cells were seeded (500 μl of 4×10^4 cells/ml) to a 24-well plate and exposed to MAL3-101, CAM741, and NFI028 at listed concentrations (see figure legends) or an equal volume of DMSO. Cells were incubated at 37° C. and counted after 24 and 48 hours, using a hemocytometer.

`CCCCCCN(C(=O)CCCCCN1C(=O)NC(c2ccc(-c3ccccc3)cc2)C(C(=O)OCc2ccccc2)=C1C)C(C(=O)NCCCC)c1ccc(OCC(=O)OC)c(C(=O)OC)c1` (stereo not shown) [MAL3-101] was tested, and the “reduction of VSG-11786 import into TbRM compared to DMSO control” value ([1]; absence of T. brucei cytosol) was 54%, the “VSG-11786 imported into TbRM” value ([1]; presence of T. brucei cytosol) was 90% and the “concentration killing all parasites” value [2] was 3 µM. The IC50 ([2]; read-out: IG50, T. brucei growth) was 1500 nM.
